In one assay the target is T1, Recombinant IKKβ (Homo sapiens, UniProt O14920).
T1 construct: purchased Millipore, Dundee, UK
T1 sequence (O14920 1-756): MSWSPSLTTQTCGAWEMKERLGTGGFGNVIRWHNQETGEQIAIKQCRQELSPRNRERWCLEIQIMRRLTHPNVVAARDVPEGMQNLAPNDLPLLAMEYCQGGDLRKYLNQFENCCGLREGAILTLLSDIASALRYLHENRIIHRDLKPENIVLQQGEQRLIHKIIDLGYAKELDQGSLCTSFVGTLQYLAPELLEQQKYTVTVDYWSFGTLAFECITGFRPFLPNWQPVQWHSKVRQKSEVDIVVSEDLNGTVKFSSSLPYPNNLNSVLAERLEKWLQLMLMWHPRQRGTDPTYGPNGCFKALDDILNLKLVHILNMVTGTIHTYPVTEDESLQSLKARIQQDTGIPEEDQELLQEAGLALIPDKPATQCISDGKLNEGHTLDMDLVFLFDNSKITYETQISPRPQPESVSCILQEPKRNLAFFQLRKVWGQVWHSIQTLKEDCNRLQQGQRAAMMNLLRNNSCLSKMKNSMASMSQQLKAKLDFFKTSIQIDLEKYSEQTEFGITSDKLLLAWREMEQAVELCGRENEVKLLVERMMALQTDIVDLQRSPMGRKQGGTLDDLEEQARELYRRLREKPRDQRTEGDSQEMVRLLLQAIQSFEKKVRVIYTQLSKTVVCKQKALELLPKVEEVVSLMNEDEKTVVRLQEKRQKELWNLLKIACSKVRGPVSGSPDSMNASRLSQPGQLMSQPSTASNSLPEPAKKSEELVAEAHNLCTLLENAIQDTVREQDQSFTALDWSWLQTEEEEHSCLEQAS
The experiment in a line: DELFIA IKKβ kinase assay (apparent Ki, Cheng-Prusoff). The settings on record: DELFIA assay (first line of an example). It counts as biochemical. The method, boiled down: (§1)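 Recombinant IKKα or IKKβ (37 nM) with 0.375 μM biotinylated IκB-α (Ser32) peptide and 40 μM ATP in 40 mM Tris-HCl pH 7.5, 20 mM MgCl2, 60 min at 30° C. Phospho-substrate captured on streptavidin and detected by anti-phospho-IκB-α plus europium anti-mouse IgG time-resolved fluorescence; apparent Ki via Cheng-Prusoff.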

In the next assay the target is T2, Recombinant IKKα (Homo sapiens, UniProt O15111).
T2 construct: purchased Millipore, Dundee, UK
T2 sequence (O15111 1-745): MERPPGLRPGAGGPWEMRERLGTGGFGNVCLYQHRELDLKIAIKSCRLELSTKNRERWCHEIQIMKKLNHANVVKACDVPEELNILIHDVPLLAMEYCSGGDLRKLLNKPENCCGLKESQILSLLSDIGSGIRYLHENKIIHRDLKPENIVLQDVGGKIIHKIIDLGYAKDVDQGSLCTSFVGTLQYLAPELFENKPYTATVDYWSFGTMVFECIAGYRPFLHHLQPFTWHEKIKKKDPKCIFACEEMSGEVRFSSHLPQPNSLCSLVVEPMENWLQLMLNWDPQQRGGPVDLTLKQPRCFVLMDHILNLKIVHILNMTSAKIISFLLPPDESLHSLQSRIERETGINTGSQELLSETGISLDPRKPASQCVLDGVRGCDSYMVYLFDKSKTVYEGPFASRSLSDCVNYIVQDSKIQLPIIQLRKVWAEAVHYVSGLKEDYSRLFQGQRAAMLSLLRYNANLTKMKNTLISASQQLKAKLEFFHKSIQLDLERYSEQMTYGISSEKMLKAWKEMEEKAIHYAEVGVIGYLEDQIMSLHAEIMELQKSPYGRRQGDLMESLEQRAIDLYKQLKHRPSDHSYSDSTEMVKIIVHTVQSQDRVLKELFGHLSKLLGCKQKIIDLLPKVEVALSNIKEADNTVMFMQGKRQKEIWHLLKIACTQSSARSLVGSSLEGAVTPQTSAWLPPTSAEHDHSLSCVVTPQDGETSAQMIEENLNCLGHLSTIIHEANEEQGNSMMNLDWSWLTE
The experiment in a line: DELFIA IKKα kinase assay (apparent Ki, Cheng-Prusoff). It counts as biochemical. To be noted: DELFIA assay (first line of an example). The method, boiled down:
as §1

As for `Nc1n[nH]c2c(C#CC3(O)CCCC3)cc(-c3ccnc4[nH]ccc34)cc12` [Example 207, 1-((3-Amino-5-(1H-pyrrolo[2,3-b]pyridin-4-yl)-1H-indazol-7-yl)ethynyl)cyclopentan-1-ol], the Ki on Recombinant IKKβ stood at 1470 nM; on Recombinant IKKα, 82 nM.

With `Nc1n[nH]c2c(C#CC3(O)CCCCC3)cc(-c3ccnc4[nH]ccc34)cc12` [Example 208, 1-((3-Amino-5-(1H-pyrrolo[2,3-b]pyridin-4-yl)-1H-indazol-7-yl)ethynyl)cyclohexan-1-ol], the Ki was determined as 528 nM on Recombinant IKKβ and 76 nM at Recombinant IKKα.

Regarding `Nc1n[nH]c2c(C#CC3(O)CCCCCC3)cc(-c3ccnc4[nH]ccc34)cc12` [Example 209, 1-((3-Amino-5-(1H-pyrrolo[2,3-b]pyridin-4-yl)-1H-indazol-7-yl)ethynyl)cycloheptan-1-ol], the Ki on Recombinant IKKβ is 2330 nM; at Recombinant IKKα, 153 nM.

In the case of `Nc1n[nH]c2c(C#CCCN3CCCCC3)cc(-c3ccnc4[nH]ccc34)cc12` [Example 211, 7-(4-(Piperidin-1-yl)but-1-yn-1-yl)-5-(1H-pyrrolo[2,3-b]pyridin-4-yl)-1H-indazol-3-amine], the Ki at Recombinant IKKβ was found to be 356 nM; at Recombinant IKKα, 19 nM.

For the molecule `Nc1n[nH]c2c(C#CCCCCN3CCCCC3)cc(-c3ccnc4[nH]ccc34)cc12` [Example 213, 7-(6-(Piperidin-1-yl)hex-1-yn-1-yl)-5-(1H-pyrrolo[2,3-b]pyridin-4-yl)-1H-indazol-3-amine], the Ki on Recombinant IKKβ turned out to be 2510 nM; at Recombinant IKKα, 40 nM.

Take `Nc1n[nH]c2c(C#CCCCC(=O)O)cc(-c3ccnc4[nH]ccc34)cc12` [Example 214, 6-(3-Amino-5-(1H-pyrrolo[2,3-b]pyridin-4-yl)-1H-indazol-7-yl)hex-5-ynoic acid]: the Ki came out at 268 nM at Recombinant IKKβ and 21 nM at Recombinant IKKα.

`Nc1n[nH]c2c(C#CCCCCC(=O)O)cc(-c3ccnc4[nH]ccc34)cc12` [Example 215, 7-(3-Amino-5-(1H-pyrrolo[2,3-b]pyridin-4-yl)-1H-indazol-7-yl)hept-6-ynoic acid]: the Ki on Recombinant IKKβ came out at 256 nM; on Recombinant IKKα it was 38 nM.

As to `Nc1n[nH]c2c(C#CCCOc3ccccc3)cc(-c3ccnc4[nH]ccc34)cc12` [Example 216, 7-(4-Phenoxybut-1-yn-1-yl)-5-(1H-pyrrolo[2,3-b]pyridin-4-yl)-1H-indazol-3-amine], the Ki on Recombinant IKKβ is 81 nM; at Recombinant IKKα, 16 nM.

In the case of `Nc1n[nH]c2c(C#CCCCCOc3ccccc3)cc(-c3ccnc4[nH]ccc34)cc12` [Example 217, 7-(6-Phenoxyhex-1-yn-1-yl)-5-(1H-pyrrolo[2,3-b]pyridin-4-yl)-1H-indazol-3-amine], the Ki on Recombinant IKKβ came out at 1260 nM; on Recombinant IKKα, 243 nM.

In the case of `Nc1n[nH]c2ccc(-c3ccnc4[nH]c(Cc5ccccc5)cc34)cc12` [Example 223, 5-(2-Benzyl-1H-pyrrolo[2,3-b]pyridin-4-yl)-1H-indazol-3-amine], the Ki at Recombinant IKKβ was determined as 111 nM; on Recombinant IKKα, 1 nM.

As for `CC(C)(O)c1cc2c(-c3ccc4[nH]nc(N)c4c3)ccnc2[nH]1` [Example 225, 2-(4-(3-Amino-1H-indazol-5-yl)-1H-pyrrolo[2,3-b]pyridin-2-yl)propan-2-ol], the values for the Ki on Recombinant IKKβ and at Recombinant IKKα were 419 nM and 26 nM, respectively.

With `CCC(O)(CC)c1cc2c(-c3ccc4[nH]nc(N)c4c3)ccnc2[nH]1` [Example 226, 3-(4-(3-Amino-1H-indazol-5-yl)-1H-pyrrolo[2,3-d]pyridin-2-yl)pentan-3-ol], the values for the Ki at Recombinant IKKβ and on Recombinant IKKα were 922 nM and 95 nM, respectively.

On to `COC(=O)c1cc2c(-c3ccc4[nH]nc(N)c4c3)ccnc2[nH]1` [Example 231, Methyl 4-(3-amino-1H-indazol-5-yl)-1H-pyrrolo[2,3-b]pyridine-2-carboxylate], for which the Ki at Recombinant IKKβ was determined as 419 nM; at Recombinant IKKα it was 9 nM.

With `CCOC(=O)c1cc2c(-c3ccc4[nH]nc(N)c4c3)ccnc2[nH]1` [Example 232, Ethyl 4-(3-amino-1H-indazol-5-yl)-1H-pyrrolo[2,3-b]pyridine-2-carboxylate], the Ki on Recombinant IKKβ was 1260 nM; at Recombinant IKKα it was 10 nM.

As to `Nc1n[nH]c2ccc(-c3ccnc4[nH]c(C(=O)NC5CCCC5)cc34)cc12` [Example 235, 4-(3-Amino-1H-indazol-5-yl)-N-cyclopentyl-1H-pyrrolo[2,3-b]pyridine-2-carboxamide], the Ki amounted to 70 nM on Recombinant IKKβ and 6 nM on Recombinant IKKα.

Take `CC(C)CCNC(=O)c1cc2c(-c3ccc4[nH]nc(N)c4c3)ccnc2[nH]1` [Example 237, 4-(3-amino-1H-indazol-5-yl)-N-isopentyl-1H-pyrrolo[2,3-b]pyridine-2-carboxamide]: the Ki at Recombinant IKKβ amounted to 130 nM; on Recombinant IKKα, 3 nM.

With `Nc1n[nH]c2ccc(-c3ccnc4[nH]c(C(=O)NCCc5ccccc5)cc34)cc12` [Example 238, 4-(3-Amino-1H-indazol-5-yl)-N-phenethyl-1H-pyrrolo[2,3-b]pyridine-2-carboxamide], the Ki at Recombinant IKKβ was determined as 90 nM; on Recombinant IKKα, 23 nM.

On to `Nc1n[nH]c2ccc(-c3ccnc4[nH]c(C(=O)NCCCc5ccccc5)cc34)cc12` [Example 239, 4-(3-Amino-1H-indazol-5-yl)-N-(3-phenylpropyl)-1H-pyrrolo[2,3-b]pyridine-2-carboxamide], for which the Ki worked out at 60 nM at Recombinant IKKβ and 5 nM on Recombinant IKKα.

As to `COCCNC(=O)c1cc2c(-c3ccc4[nH]nc(N)c4c3)ccnc2[nH]1` [Example 240, 4-(3-Amino-1H-indazol-5-yl)-N-(2-methoxyethyl)-1H-pyrrolo[2,3-b]pyridine-2-carboxamide], the results for the Ki at Recombinant IKKβ and on Recombinant IKKα were 30 nM and 5 nM, respectively.

As to `NCCNC(=O)c1cc2c(-c3ccc4[nH]nc(N)c4c3)ccnc2[nH]1` [Example 241, 4-(3-Amino-1H-indazol-5-yl)-N-(2-aminoethyl)-1H-pyrrolo[2,3-b]pyridine-2-carboxamide], the Ki at Recombinant IKKβ came out at 122 nM; at Recombinant IKKα it was 4 nM.

As for `CN(C)CCNC(=O)c1cc2c(-c3ccc4[nH]nc(N)c4c3)ccnc2[nH]1` [Example 242, 4-(3-Amino-1H-indazol-5-yl)-N-(2-(dimethylamino)ethyl)-1H-pyrrolo[2,3-b]pyridine-2-carboxamide], the Ki at Recombinant IKKβ was found to be 377 nM; on Recombinant IKKα, 8 nM.

Take `Nc1n[nH]c2ccc(-c3ccnc4[nH]c(C(=O)NCCN5CCCCC5)cc34)cc12` [Example 244, 4-(3-Amino-1H-indazol-5-yl)-N-(2-(piperidin-1-yl)ethyl)-1H-pyrrolo[2,3-b]pyridine-2-carboxamide]: the figures for the Ki at Recombinant IKKβ and on Recombinant IKKα were 109 nM and 8 nM, respectively.

With `CCCCN(CC)CCNC(=O)c1cc2c(-c3ccc4[nH]nc(N)c4c3)ccnc2[nH]1` [Example 245, 4-(3-Amino-1H-indazol-5-yl)-N-(2-(butyl(ethyl)amino)ethyl)-1H-pyrrolo[2,3-b]pyridine-2-carboxamide], the Ki on Recombinant IKKβ worked out at 193 nM; at Recombinant IKKα it was 29 nM.

For `CC(C)N(CCNC(=O)c1cc2c(-c3ccc4[nH]nc(N)c4c3)ccnc2[nH]1)C(C)C` [Example 246, 4-(3-Amino-1H-indazol-5-yl)-N-(2-(diisopropylamino)ethyl)-1H-pyrrolo[2,3-b]pyridine-2-carboxamide], the Ki on Recombinant IKKβ is 104 nM; at Recombinant IKKα, 9 nM.

Regarding `CN(C)CCCNC(=O)c1cc2c(-c3ccc4[nH]nc(N)c4c3)ccnc2[nH]1` [Example 247, 4-(3-Amino-1H-indazol-5-yl)-N-(3-(dimethylamino)propyl)-1H-pyrrolo[2,3-b]pyridine-2-carboxamide], the values for the Ki on Recombinant IKKβ and at Recombinant IKKα were 46 nM and 8 nM, respectively.

The values above are taken from patent US20250304576A1 (Cancer Research Technology Limited, priority 2022, published 2025).
